33 compounds from patent US6750228B1, “Aromatic sulfone hydroxamic acid metalloprotease inhibitor” (priority 1997, dated 2004) can be followed below.

pIC50: −log10 of the molar value. Where two headings read alike, the source gives them in different places. Bounds are passed on as bounds.

Holding throughout (test): biochemical
One experiment deals with T1, MMP-1 (Homo sapiens, UniProt P03956).
T1 construct: made in house; host or cells: transfected HT-1080 cells (provided by Dr. Harold Welgus, Washington University)
T1 sequence (P03956 100-469): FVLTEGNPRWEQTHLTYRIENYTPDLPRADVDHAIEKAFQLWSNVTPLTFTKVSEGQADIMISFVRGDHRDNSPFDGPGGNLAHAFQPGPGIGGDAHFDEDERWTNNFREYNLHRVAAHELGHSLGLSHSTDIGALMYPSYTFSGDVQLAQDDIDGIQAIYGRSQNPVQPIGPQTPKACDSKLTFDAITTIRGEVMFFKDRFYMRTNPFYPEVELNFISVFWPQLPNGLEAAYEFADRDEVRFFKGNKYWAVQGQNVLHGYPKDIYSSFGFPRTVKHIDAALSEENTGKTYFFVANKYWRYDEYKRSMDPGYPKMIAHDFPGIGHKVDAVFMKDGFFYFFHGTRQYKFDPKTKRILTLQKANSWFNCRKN
The note with it: read-out: MMP-1 IC50. Put shortly: (§1)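 Assay buffer 100 mM Tris-HCl, 100 mM NaCl, 10 mM CaCl2, pH 7.5. Activated MMP + inhibitor, 5 min RT; then methoxycoumarin peptide substrate, 4 μM final. Readout fluorescence; IC50 calculated.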

For another experiment, the target named is T2, MMP-13 (Homo sapiens, UniProt P45452).
T2 construct: made in house; host or cells: baculovirus / insect cells
The note with it: recombinant human MMP-13, MCA peptide substrate 4 μM, pH 7.5, room temperature; read-out: MMP-13 IC50. Put shortly: as §1

Another experiment addresses T3, MMP-2 (Homo sapiens, UniProt P08253).
T3 construct: made in house; provided by Dr. Gregory Goldberg, Washington University
T3 sequence (P08253 110-660): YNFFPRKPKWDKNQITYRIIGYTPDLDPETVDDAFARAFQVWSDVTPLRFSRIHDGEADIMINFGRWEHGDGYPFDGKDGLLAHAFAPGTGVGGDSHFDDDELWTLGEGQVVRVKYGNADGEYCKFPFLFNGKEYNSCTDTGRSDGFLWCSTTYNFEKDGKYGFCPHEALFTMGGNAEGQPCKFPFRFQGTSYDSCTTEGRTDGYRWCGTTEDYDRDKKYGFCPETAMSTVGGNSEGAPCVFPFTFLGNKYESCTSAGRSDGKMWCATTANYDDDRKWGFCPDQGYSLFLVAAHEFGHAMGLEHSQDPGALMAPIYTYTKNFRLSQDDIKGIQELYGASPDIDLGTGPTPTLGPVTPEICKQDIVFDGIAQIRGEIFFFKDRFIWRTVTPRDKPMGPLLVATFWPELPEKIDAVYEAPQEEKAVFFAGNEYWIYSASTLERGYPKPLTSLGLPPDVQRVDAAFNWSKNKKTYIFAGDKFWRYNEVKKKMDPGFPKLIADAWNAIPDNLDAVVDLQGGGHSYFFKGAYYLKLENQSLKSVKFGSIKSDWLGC
The note with it: recombinant human MMP-2, MCA peptide substrate 4 μM, pH 7.5, room temperature; read-out: MMP-2 IC50. The procedure, abridged:
as §1

The mark [1] stands for this setting: recombinant human MMP-1, MCA peptide substrate 4 μM, pH 7.5, room temperature.

`O=C(NO)C1(S(=O)(=O)c2ccc(N3CCC(Oc4ccc(OC(F)(F)F)cc4)CC3)cc2)CCOCC1` [Example 480]: the pIC50 – broadly, the IC50 on a negative log10 scale, so that one unit is a factor of ten – is < 5.00 at MMP-1 (setting [1]), 7.73 on MMP-13 and 6.81 at MMP-2.

Take `O=C(NO)C1(S(=O)(=O)c2ccc(N3CCC(Oc4ccc([N+](=O)[O-])cc4C(F)(F)F)CC3)cc2)CCOCC1` [Example 481]: the values for the pIC50 on MMP-1 (setting [1]), on MMP-13 and on MMP-2 were < 5.00, 7.30 and 5.85, respectively.

For the compound `CC(C)c1cccc(OC2CCN(c3ccc(S(=O)(=O)C4(C(=O)NO)CCOCC4)cc3)CC2)c1` [Example 482], the negative-log IC50 (pIC50) on MMP-1 (setting [1]) is < 5.00; at MMP-13 it was 8.22; on MMP-2, 8.40.

For `O=C(NO)C1(S(=O)(=O)c2ccc(N3CCC(Oc4ccc5c(c4)CCCC5)CC3)cc2)CCOCC1` [Example 483], the values for the pIC50 on MMP-1 (setting [1]), on MMP-13 and on MMP-2 were < 5.00, 7.49 and 7.97, respectively.

Take `O=C(NO)C1(S(=O)(=O)c2ccc(N3CCc4ccccc4C3)cc2)CCOCC1` [Example 484]: the values for the pIC50 on MMP-1 (setting [1]), at MMP-13 and on MMP-2 were < 5.00, 6.62 and 7.00, respectively.

For the compound `Cc1cccc(OC2CCN(c3ccc(S(=O)(=O)C4(C(=O)NO)CCOCC4)cc3)CC2)c1` [Example 485], the figures for the pIC50 on MMP-1 (setting [1]), at MMP-13 and at MMP-2 were < 5.00, 8.10 and 8.38, respectively.

As for `CC1CCCCN1c1ccc(S(=O)(=O)C2(C(=O)NO)CCOCC2)cc1` (stereo not drawn) [Example 486], the pIC50 is < 5.00 at MMP-1 (setting [1]), 5.27 on MMP-13 and 5.40 at MMP-2.

`CC1CN(c2ccc(S(=O)(=O)C3(C(=O)NO)CCOCC3)cc2)CCN1c1ccccc1` (stereo not drawn) [Example 487]: the pIC50 at MMP-1 (setting [1]) is < 5.00; on MMP-13, 6.85; at MMP-2, 6.10.

For the compound `O=C(NO)C1(S(=O)(=O)c2ccc(N3CCN(C4CCCC4)CC3)cc2)CCOCC1` [Example 488], the pIC50 on MMP-1 (setting [1]) is < 5.00; at MMP-13, 6.85; on MMP-2, 6.43.

In the case of `O=C(NO)C1(S(=O)(=O)c2ccc(N3CCN(C4CCCCC4)CC3)cc2)CCOCC1` [Example 489], the results for the pIC50 on MMP-1 (setting [1]), at MMP-13 and at MMP-2 were < 5.00, 6.11 and 5.72, respectively.

With `Cc1cccc(N2CCN(c3ccc(S(=O)(=O)C4(C(=O)NO)CCOCC4)cc3)CC2)c1C` [Example 490], the pIC50 was < 5.00 at MMP-1 (setting [1]), 7.21 on MMP-13 and 5.52 at MMP-2.

`O=C(NO)C1(S(=O)(=O)c2ccc(N3CC4CC3CN4c3cccc(F)c3)cc2)CCOCC1` (stereo not drawn) [Example 491]: the pIC50 on MMP-1 (setting [1]), at MMP-13 and at MMP-2 was < 5.00 throughout.

Take `O=C(NO)C1(S(=O)(=O)c2ccc(N3CC4CC3CO4)cc2)CCOCC1` (stereo not drawn) [Example 492]: the pIC50 at MMP-1 (setting [1]) is < 5.00; on MMP-13, 5.21; on MMP-2, < 5.00.

Turning to `O=C(NO)C1(S(=O)(=O)c2ccc(N3CC4CC3CN4Cc3ccccc3)cc2)CCOCC1` (stereo not drawn) [Example 493], the pIC50 at MMP-1 (setting [1]), on MMP-13 and at MMP-2 was < 5.00 each time.

As for `Cc1ccccc1N1CC2CC1CN2c1ccc(S(=O)(=O)C2(C(=O)NO)CCOCC2)cc1` (stereo not drawn) [Example 494], the negative-log IC50 (pIC50) on MMP-1 (setting [1]) is < 5.00; on MMP-13 it was 6.19; at MMP-2 it was 5.48.

On to `CC1CCN(c2ccc(S(=O)(=O)C3(C(=O)NO)CCOCC3)cc2)CC1` [Example 495], for which the pIC50 is < 5.00 at MMP-1 (setting [1]), 7.84 on MMP-13 and 7.68 at MMP-2.

For the compound `CC1CCCN(c2ccc(S(=O)(=O)C3(C(=O)NO)CCOCC3)cc2)C1` (stereo not drawn) [Example 496], the figures for the pIC50 on MMP-1 (setting [1]), at MMP-13 and at MMP-2 were < 5.00, 7.51 and 6.70, respectively.

With `CN(Cc1cccnc1)C(=O)C1CCN(c2ccc(S(=O)(=O)C3(C(=O)NO)CCOCC3)cc2)CC1` [Example 497], the pIC50 at MMP-1 (setting [1]) is < 5.00; at MMP-13 it was 7.30; at MMP-2, 5.10.

As to `O=C(NO)C1(S(=O)(=O)c2ccc(N3CCC(CCOCc4ccccc4)CC3)cc2)CCOCC1` [Example 499], the values for the pIC50 on MMP-1 (setting [1]), at MMP-13 and on MMP-2 were < 5.00, 9.05 and 7.71, respectively.

With `O=C(NO)C1(S(=O)(=O)c2ccc(N3CCC(CCOCc4ccc(F)cc4)CC3)cc2)CCOCC1` [Example 500], the pIC50 was < 5.00 at MMP-1 (setting [1]), 8.52 at MMP-13 and 7.66 on MMP-2.

`O=C(NO)C1(S(=O)(=O)c2ccc(N3CCC(CCOCc4ccc(Cl)c(Cl)c4)CC3)cc2)CCOCC1` [Example 502]: the pIC50 is < 5.00 on MMP-1 (setting [1]), 7.85 at MMP-13 and 7.20 on MMP-2.

As to `O=C(NO)C1(S(=O)(=O)c2ccc(N3CCC(CCOCc4cccc(C(F)(F)F)c4)CC3)cc2)CCOCC1` [Example 503], the pIC50 on MMP-1 (setting [1]) is < 5.00; at MMP-13, 8.00; on MMP-2, 7.30.

For `O=C(NO)C1(S(=O)(=O)c2ccc(N3CCCC(COCc4ccccc4)C3)cc2)CCOCC1` (stereo not drawn) [Example 504], the pIC50 at MMP-1 (setting [1]) was < 5.00; at MMP-13, 8.20; at MMP-2, 6.66.

On to `O=C(NO)C1(S(=O)(=O)c2ccc(N3CCCC(COCc4ccc(F)cc4)C3)cc2)CCOCC1` (stereo not drawn) [Example 505], for which the negative-log IC50 (pIC50) at MMP-1 (setting [1]) is < 5.00; at MMP-13 it was 7.85; on MMP-2, 7.14.

With `O=C(NO)C1(S(=O)(=O)c2ccc(N3CCCC(COCc4cccc(C(F)(F)F)c4)C3)cc2)CCOCC1` (stereo not drawn) [Example 507], the results for the negative logarithm of the IC50 (pIC50) on MMP-1 (setting [1]), on MMP-13 and at MMP-2 were < 5.00, 7.80 and 6.68, respectively.

Consider `O=C(NO)C1(S(=O)(=O)c2ccc(N3CCCC(COCc4ccc(Cl)c(Cl)c4)C3)cc2)CCOCC1` (stereo not drawn) [Example 508], for which the values for the pIC50 at MMP-1 (setting [1]), on MMP-13 and on MMP-2 were < 5.00, 7.71 and 6.68, respectively.

Take `O=C(NO)C1(S(=O)(=O)c2ccc(N3CCCCC3CCOCc3ccccc3)cc2)CCOCC1` (stereo not drawn) [Example 509]: the pIC50 on MMP-1 (setting [1]) is < 5.00; at MMP-13, 6.28; on MMP-2 it was < 5.00.

Regarding `O=C(NO)C1(S(=O)(=O)c2ccc(N3CCCCC3CCOCc3ccc(F)cc3)cc2)CCOCC1` (stereo not drawn) [Example 510], the pIC50 at MMP-1 (setting [1]) was < 5.00; on MMP-13, 5.11; at MMP-2, < 5.00.

In the case of `O=C(NO)C1(S(=O)(=O)c2ccc(N3CCCCC3CCOCc3cccc(C(F)(F)F)c3)cc2)CCOCC1` (stereo not drawn) [Example 512], the pIC50 is < 5.00 at MMP-1 (setting [1]), 5.11 at MMP-13 and < 5.00 at MMP-2.

In the case of `O=C(NO)C1(S(=O)(=O)c2ccc(N3CCCCC3CCOCc3ccc(Cl)c(Cl)c3)cc2)CCOCC1` (stereo not drawn) [Example 513], the pIC50 was < 5.00 on MMP-1 (setting [1]), 5.11 at MMP-13 and < 5.00 on MMP-2.

For `O=C(Nc1ccccc1)OC1CCN(c2ccc(S(=O)(=O)C3(C(=O)NO)CCOCC3)cc2)CC1` [Example 515], the pIC50 at MMP-1 is < 5.00; on MMP-13, 8.10; on MMP-2, 7.57.

Take `O=C(NCCc1ccccc1)OC1CCN(c2ccc(S(=O)(=O)C3(C(=O)NO)CCOCC3)cc2)CC1` [Example 516]: the pIC50 was < 5.00 at MMP-1 (setting [1]), 7.83 on MMP-13 and 6.52 at MMP-2.

Take `CC(C)NC(=O)OC1CCN(c2ccc(S(=O)(=O)C3(C(=O)NO)CCOCC3)cc2)CC1` [Example 517]: the results for the negative-log IC50 (pIC50) at MMP-1 (setting [1]), on MMP-13 and at MMP-2 were < 5.00, 7.85 and 5.96, respectively.
